From patent US20230117034A1, “PYRAZOLOTRIAZINES” (Bayer Aktiengesellschaft, priority 2019, published 2023)

Columns and labels:
[1] = test system: CAL-120, human breast adenocarcinoma cells; experiment: Proliferation assay CAL-120 (crystal violet, 4 days); assay type: cell-based; conditions: Homo sapiens, CAL-120, 96 h, CAL-120 cells, median, read-out: Prolif-CAL-120, IC50-[mol/l] (median)
In short: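 Cells seeded at 4,000/well in medium with 10% FCS; after 24 h, compounds added at 0.01-10 µmol/L (0.1% DMSO) for 4 days. Glutaraldehyde-fixed, crystal violet-stained, absorbance at 595 nm normalized to zero-point plate (0%) and untreated cells (100%); IC50 by 4-parameter fit.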

CDK2/CycE = molecular target: T1, CDK2/CycE (Homo sapiens, UniProt P24941); experiment: CDK2/CycE kinase assay (TR-FRET, 2 mM ATP); assay type: biochemical; conditions: 2 mM ATP (high ATP); median; read-out: CDK2/CyclinE, 2 mM ATP (high ATP), IC50 (median)
T1 construct: purchased ProQinase GmbH (Freiburg, Germany); host or cells: insect cells (Sf9)
In short: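 GST-tagged human CDK2 and CycE from Sf9 cells, about 10 ng/ml, pre-incubated 15 min at 22 °C with compound in Tris/HCl pH 8.0 buffer. Reaction with 2 mM ATP and 0.75 µM biotinylated peptide for 25 min at 22 °C. Phospho-RB antibody TR-FRET (665/620 nm ratio) read after 1 h; data normalised to no-inhibitor and no-enzyme controls.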

[2] = molecular target: T2, CDK12 (nuclear staining in CAL-120 cells) (Homo sapiens, UniProt Q9NYV4); experiment: CDK12 nuclear protein level: immunofluorescence/high content analysis (CAL-120); assay type: cell-based; conditions: for DC50: CAL-120 cells, 24 h, immunofluorescence, 50% reduction of nuclear CDK12 staining intensity, median, read-out: CDK12 degradation IF, DC50- [mol/l] (median); for (IC50 CDK12 high ATP) to (Degradation DC50 CDK12) ratio: ratio of IC50 CDK12 high ATP kinase assay to DC50 CDK12 degradation (IF, CAL-120)
T2 construct: endogenous in cells; host or cells: CAL-120 human breast cancer cells (DSMZ ACC 459)
T2 sequence (Q9NYV4 whole entry): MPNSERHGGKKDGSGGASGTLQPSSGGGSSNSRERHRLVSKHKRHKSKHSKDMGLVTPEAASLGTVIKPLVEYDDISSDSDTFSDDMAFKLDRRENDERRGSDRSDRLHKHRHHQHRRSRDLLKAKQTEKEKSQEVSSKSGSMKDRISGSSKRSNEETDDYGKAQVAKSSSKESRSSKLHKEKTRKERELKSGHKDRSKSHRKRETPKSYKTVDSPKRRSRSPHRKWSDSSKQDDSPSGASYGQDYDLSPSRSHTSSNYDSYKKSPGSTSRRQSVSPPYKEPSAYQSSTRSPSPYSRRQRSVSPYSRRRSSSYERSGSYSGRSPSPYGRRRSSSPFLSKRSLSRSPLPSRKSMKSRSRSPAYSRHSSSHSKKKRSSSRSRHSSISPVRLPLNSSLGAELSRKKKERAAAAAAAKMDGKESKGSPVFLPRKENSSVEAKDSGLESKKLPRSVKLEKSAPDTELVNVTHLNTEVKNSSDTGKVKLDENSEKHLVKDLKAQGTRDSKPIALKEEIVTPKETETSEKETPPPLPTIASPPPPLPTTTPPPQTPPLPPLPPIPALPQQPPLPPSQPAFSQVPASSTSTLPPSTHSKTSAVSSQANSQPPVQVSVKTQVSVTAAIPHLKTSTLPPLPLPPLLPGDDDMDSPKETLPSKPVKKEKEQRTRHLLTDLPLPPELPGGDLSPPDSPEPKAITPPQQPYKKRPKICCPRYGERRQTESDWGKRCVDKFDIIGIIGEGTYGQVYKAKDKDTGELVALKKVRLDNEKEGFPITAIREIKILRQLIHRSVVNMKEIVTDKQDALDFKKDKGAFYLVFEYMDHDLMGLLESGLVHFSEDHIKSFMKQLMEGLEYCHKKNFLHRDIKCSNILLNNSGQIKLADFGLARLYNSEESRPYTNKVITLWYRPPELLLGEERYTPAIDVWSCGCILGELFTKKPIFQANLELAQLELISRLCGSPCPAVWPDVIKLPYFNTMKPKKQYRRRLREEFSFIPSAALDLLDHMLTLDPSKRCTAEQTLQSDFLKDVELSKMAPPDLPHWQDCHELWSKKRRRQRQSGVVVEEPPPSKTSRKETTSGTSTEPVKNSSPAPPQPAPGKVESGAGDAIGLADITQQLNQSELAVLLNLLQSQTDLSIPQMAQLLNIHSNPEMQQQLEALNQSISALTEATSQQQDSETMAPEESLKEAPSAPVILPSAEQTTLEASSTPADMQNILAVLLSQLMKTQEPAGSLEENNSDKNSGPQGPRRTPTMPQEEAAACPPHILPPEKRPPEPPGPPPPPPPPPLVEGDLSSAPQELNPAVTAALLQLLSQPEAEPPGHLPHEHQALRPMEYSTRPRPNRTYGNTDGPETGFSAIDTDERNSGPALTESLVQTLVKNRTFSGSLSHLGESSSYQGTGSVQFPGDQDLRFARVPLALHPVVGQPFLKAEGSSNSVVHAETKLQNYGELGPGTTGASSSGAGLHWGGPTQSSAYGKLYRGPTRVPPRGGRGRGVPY
T2 sequence (O75909 whole entry partner): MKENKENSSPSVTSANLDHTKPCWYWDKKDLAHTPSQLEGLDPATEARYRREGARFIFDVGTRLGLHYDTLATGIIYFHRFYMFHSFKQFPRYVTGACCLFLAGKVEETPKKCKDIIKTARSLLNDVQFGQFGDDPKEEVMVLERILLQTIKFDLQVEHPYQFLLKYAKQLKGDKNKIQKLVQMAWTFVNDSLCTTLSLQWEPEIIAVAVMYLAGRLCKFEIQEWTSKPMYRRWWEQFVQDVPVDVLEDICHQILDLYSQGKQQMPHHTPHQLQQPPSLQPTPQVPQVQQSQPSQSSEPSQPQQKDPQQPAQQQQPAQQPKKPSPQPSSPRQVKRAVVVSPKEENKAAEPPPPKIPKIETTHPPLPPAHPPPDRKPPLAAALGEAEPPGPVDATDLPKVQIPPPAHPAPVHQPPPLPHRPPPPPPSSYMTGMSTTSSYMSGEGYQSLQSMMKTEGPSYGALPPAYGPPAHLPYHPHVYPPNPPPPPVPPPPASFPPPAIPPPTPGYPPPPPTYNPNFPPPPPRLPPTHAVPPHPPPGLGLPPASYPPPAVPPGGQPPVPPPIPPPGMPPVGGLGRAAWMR
In short: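 CAL-120 cells were treated with compound for 24 h at 37 °C, fixed with PFA and immunostained for CDK12. Nuclear CDK12 intensity was quantified by automated image analysis and normalized to DMSO and control. DC50 is the concentration giving 50% reduction of nuclear staining.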

Row | IC50 [1] [nM] | IC50 (CDK2/CycE) [nM] | DC50 [2] [nM] | (IC50 CDK12 high ATP) to (Degradation DC50 CDK12) ratio [2] | SMILES
1 | 1.15 | > 20000 | 0.322 | 34272 | C[C@@H]1CN(c2nc(NCc3nc4cc(F)ccc4[nH]3)n3ncc(C4CC4)c3n2)C[C@H](C)N1 [Example 175, 8-cyclopropyl-2-[(3R,5S)-3,5-dimethylpiperazin-1-yl]-N-[(5-fluoro-1H-benzimidazol-2-yl)methyl]pyrazolo[1,5-a][1,3,5]triazin-4-amine]
2 | 313 | 10100 | 66 | >303 | COCCNc1nc(NCc2nc3ccccc3[nH]2)n2ncc(Br)c2n1 [Example 230, N4-(1H-benzimidazol-2-ylmethyl)-8-bromo-N2-(2-methoxyethyl)pyrazolo[1,5-a][1,3,5]triazine-2,4-diamine]
3 | 23.7 | 15500 | 5.56 | >3596 | CN1CC2CN(c3nc(NCc4nc5ccccc5[nH]4)n4ncc(Br)c4n3)CC2C1 (stereo not shown) [Example 240, N-(1H-benzimidazol-2-ylmethyl)-8-bromo-2-(2-methyl-1,3,3a,4,6,6a-hexahydropyrrolo[3,4-c]pyrrol-5-yl)pyrazolo[1,5-a][1,3,5]triazin-4-amine]
4 | 0.869 | 10900 | 0.619 | 7019 | Cc1ccc2[nH]c(CNc3nc(N4CCNCC4)nc4c(Br)cnn34)nc2c1 [Example 204, 8-bromo-N-[(5-methyl-1H-benzimidazol-2-yl)methyl]-2-(piperazin-1-yl)pyrazolo[1,5-a][1,3,5]triazin-4-amine]
5 | 3.56 | 13300 | 1.09 | 12610 | C[C@H]1CN(c2nc(NCc3nc4ccccc4[nH]3)n3ncc(Br)c3n2)CCN1 [Example 169, N-[(1H-benzimidazol-2-yl)methyl]-8-bromo-2-[(3S)-3-methylpiperazin-1-yl]pyrazolo[1,5-a][1,3,5]triazin-4-amine]
6 | 27.4 | > 20000 | 1.65 | 6199 | Fc1cccc2[nH]c(CNc3nc(N4C[C@@H]5C[C@H]4CO5)nc4c(C5CC5)cnn34)nc12 [Example 183, 8-cyclopropyl-N-[(4-fluoro-1H-benzimidazol-2-yl)methyl]-2-[(1S,4S)-2-oxa-5-azabicyclo[2.2.1]heptan-5-yl]pyrazolo[1,5-a][1,3,5]triazin-4-amine]
7 | 57 | 7750 | 38.4 | 407 | O[C@H]1CCN(c2nc(NCc3nc4ccccc4[nH]3)n3ncc(Br)c3n2)C1 [Example 224, (3S)-1-(4-{[(1H-benzimidazol-2-yl)methyl]amino}-8-bromopyrazolo[1,5-a][1,3,5]triazin-2-yl)pyrrolidin-3-ol]
8 | 31.3 | 2730 | 10.3 | 472 | O[C@H]1C[C@@H](Nc2nc(NCc3nc4ccccc4[nH]3)n3ncc(Br)c3n2)C1 [Example 234, cis-3-[(4-{[(1H-benzimidazol-2-yl)methyl]amino}-8-bromopyrazolo[1,5-a][1,3,5]triazin-2-yl)amino]cyclobutan-1-ol]
9 | 8.55 | 15200 | 3.31 | >1386 | CC1(C)CN(c2nc(NCc3nc4ccccc4[nH]3)n3ncc(Br)c3n2)CCN1 [Example 216, N-[(1H-benzimidazol-2-yl)methyl]-8-bromo-2-(3,3-dimethylpiperazin-1-yl)pyrazolo[1,5-a][1,3,5]triazin-4-amine]
10 | 274 | > 20000 | 104 | >192 | Brc1cnn2c(NCc3nc4ccccc4[nH]3)nc(NCCN3CCCC3)nc12 [Example 235, N4-(1H-benzimidazol-2-ylmethyl)-8-bromo-N2-(2-pyrrolidin-1-ylethyl)pyrazolo[1,5-a][1,3,5]triazine-2,4-diamine]
11 | 270 | 14400 | 57.6 | >287 | CO[C@@H]1CCN(c2nc(NCc3nc4ccccc4[nH]3)n3ncc(Br)c3n2)C1 [Example 223, N-[(1H-benzimidazol-2-yl)methyl]-8-bromo-2-[(3R)-3-methoxypyrrolidin-1-yl]pyrazolo[1,5-a][1,3,5]triazin-4-amine]
12 | 126 | > 20000 | 61.3 | >326 | CN(C)C1CCN(c2nc(NCc3nc4ccccc4[nH]3)n3ncc(Br)c3n2)CC1 [Example 201, N-[(1H-benzimidazol-2-yl)methyl]-8-bromo-2-[4-(dimethylamino)piperidin-1-yl]pyrazolo[1,5-a][1,3,5]triazin-4-amine]
13 | 39.4 | 1460 | 6.38 | 862 | CC(C)(O)CNc1nc(NCc2nc3ccccc3[nH]2)n2ncc(Br)c2n1 [Example 229, 1-[(4-{[(1H-benzimidazol-2-yl)methyl]amino}-8-bromopyrazolo[1,5-a][1,3,5]triazin-2-yl)amino]-2-methylpropan-2-ol]
14 | 1.73 | > 20000 | 0.506 | 15749 | COc1ccc2[nH]c(CNc3nc(N4C[C@@H](C)N[C@@H](C)C4)nc4c(Br)cnn34)nc2c1 [Example 205, 8-bromo-2-[(3R,5S)-3,5-dimethylpiperazin-1-yl]-N-[(5-methoxy-1 H-benzimidazol-2-yl)methyl]pyrazolo[1,5-a][1,3,5]triazin-4-amine]
15 | 107 | 14600 | 48.8 | 123 | CO[C@H]1CCN(c2nc(NCc3nc4ccccc4[nH]3)n3ncc(Br)c3n2)C1 [Example 222, N-[(1H-benzimidazol-2-yl)methyl]-8-bromo-2-[(3S)-3-methoxypyrrolidin-1-yl]pyrazolo[1,5-a][1,3,5]triazin-4-amine]
16 | 4.37 | 8600 | 1.53 | 1525 | Brc1cnn2c(NCc3nc4ccccc4[nH]3)nc(N3CCNC4(CC4)C3)nc12 [Example 176, N-[(1H-benzimidazol-2-yl)methyl]-8-bromo-2-(4,7-diazaspiro[2.5]octan-7-yl)pyrazolo[1,5-a][1,3,5]triazin-4-amine]
17 | 38.2 | 1500 | 4.54 | 1528 | OC1CCCN(c2nc(NCc3nc4ccccc4[nH]3)n3ncc(Br)c3n2)C1 (racemic) [Example 16, (rac)-1-(4-{[(1H-benzimidazol-2-yl)methyl]amino}-8-bromopyrazolo[1,5-a][1,3,5]triazin-2-yl)piperidin-3-ol]
18 | 1.1 | > 20000 | 0.707 | 9192 | Fc1cccc2[nH]c(CNc3nc(N4C[C@@H]5CCCN[C@@H]5C4)nc4c(C5CC5)cnn34)nc12 [Example 187, 8-cyclopropyl-N-[(4-fluoro-1H-benzimidazol-2-yl)methyl]-2-[(4aS,7aS)-octahydro-6H-pyrrolo[3,4-b]pyridin-6-yl]pyrazolo[1,5-a][1,3,5]triazin-4-amine]
19 | 32.4 | 6290 | 2.98 | >5268 | CN1CCN(c2nc(NCc3nc4ccccc4[nH]3)n3ncc(Br)c3n2)CC1 [Example 18, N-[(1H-benzimidazol-2-yl)methyl]-8-bromo-2-(4-methylpiperazin-1-yl)pyrazolo[1,5-a][1,3,5]triazin-4-amine]
20 | 3.25 | 12300 | 0.532 | 10872 | C[C@@H]1CN(c2nc(NCc3nc4ccccc4[nH]3)n3ncc(Br)c3n2)CCN1 [Example 168, N-[(1H-benzimidazol-2-yl)methyl]-8-bromo-2-[(3R)-3-methylpiperazin-1-yl]pyrazolo[1,5-a][1,3,5]triazin-4-amine]
21 | 158 | 5350 | 103 | 73 | CCN(C)c1nc(NCc2nc3ccccc3[nH]2)n2ncc(Br)c2n1 [Example 233, N4-(1H-benzimidazol-2-ylmethyl)-8-bromo-N2-ethyl-N2-methyl-pyrazolo[1,5-a][1,3,5]triazine-2,4-diamine]

Row | SMILES | IC50 [1] [nM] | IC50 (CDK2/CycE) [nM] | DC50 [2] [nM] | (IC50 CDK12 high ATP) to (Degradation DC50 CDK12) ratio [2]
22 | CN1CC2CCC(C1)N2c1nc(NCc2nc3ccccc3[nH]2)n2ncc(Br)c2n1 [Example 226, N-(1H-benzimidazol-2-ylmethyl)-8-bromo-2-(3-methyl-3,8-diazabicyclo[3.2.1]octan-8-yl)pyrazolo[1,5-a][1,3,5]triazin-4-amine] | 116 | > 20000 | 27.6 | >725
